Experimental findings from a melting point compilation (Tetko et al.; mined from patent text by program, amines drawn as free bases though some values may be those of a salt) are described below.

What is called melting point is the temperature of the solid-liquid transition. The molecule `CCN(CC)C(=O)c1ccc(C(=C2CCN(Cc3ccccc3)CC2)c2cccc(OC)c2)cc1` showed a melting point of 100 to 110 °C. In the case of `CC(=O)Oc1ccc(C=CC(=O)C=Cc2ccc(OC(C)=O)cc2)cc1` it was 167 to 168 °C; in that of `Cc1ccc(C(=O)NC(NC(=S)Nc2cccc(C)c2)C(F)(F)F)cc1` (configuration not stated), 197 to 198 °C; in that of `COC(CNC(=O)c1cccc(C(=O)NCC(OC)OC)c1)OC`, 76.5 to 78 °C. Under `CONC(=N)NC(=O)Nc1c(C)cccc1C` stands 78 to 80 °C. `COP(=O)(OC)c1cc(Oc2ccc(C(F)(F)F)cc2Cl)ccc1[N+](=O)[O-]` gave a melting point of 83 °C. `N#Cc1ccc2c(OCc3ccccc3)cc(C(=O)O)cc2c1`: the melting point was determined as 235 °C. In turn, `NC(=O)N1C(=O)Cc2cc(C(=O)c3ccccc3)ccc21` came in with a melting point of 210 to 211 °C. In the case of `C=C(C(=O)c1cc(C)cc(C)c1O)c1ccccc1` it was 83 to 84 °C.

In the case of `CONc1nc(C#Cc2ccccc2)nc2c1ncn2[C@@H]1O[C@H](CO)[C@@H](O)[C@H]1O`, the melting point lay within 175 to 177 °C. Under `COc1ccc(CNc2nc(N3CCC[C@H]3CO)cnc2C(=O)O)cc1Cl` stands 169 to 171 °C.

`Cc1ccc(Oc2ccc(-n3cnnn3)cc2)c(O)c1` displayed a melting point of 129 to 132 °C. In the case of `CCOC(=O)CNC(=O)n1nc(Oc2c(Cl)cc(C(F)(F)F)cc2Cl)cc1C`, the melting point fell in the range of 50 to 53 °C. `CC(Cc1ccccc1)(C(=NC#N)NCCc1ccccc1)c1ccccn1` (configuration not stated) displayed a melting point of 162 to 164 °C. In the case of `COc1ccc(SCc2c(C(C)C)nc(C(C)C)c(CO)c2-c2ccc(F)cc2)cc1` it was 92 to 93 °C; in that of `CCOC(=O)/C=C/c1nc(COc2ccc(CO)cc2OC)c(C)o1`, 96 to 97 °C; in that of `O=C(COc1ccc(CCNS(=O)(=O)c2ccc(Cl)cc2)cc1)Nc1nnn[nH]1`, 228 to 230 °C. Under `CCOC(=O)c1c(OC(C)C)nc2cc(OC)c(OC)cc2c1-c1ccc(OC)c(OC)c1` stands 142 to 143 °C.

Consider `CCc1ccc(-c2ccc(C(=O)Nc3cc4ncc(CN5CCCC5)cc4cc3C)cc2)cc1`, for which the melting point is 188 °C.

For `OCc1ccc(OCCF)cc1`, the melting point lay in the range of 37.3 to 38 °C. On to `Nc1ncnc2c1c(-c1ccc(Oc3ccccc3)cc1)cn2[C@H]1CC[C@@H](N2CCCC2)CC1`, for which the melting point was 101 to 104 °C. In the case of `COc1cc2c(cc1OC)CN(CCNc1ccc(NC(=O)c3cccc4c(=O)c5cccc(OC)c5[nH]c34)cc1)CC2` it was 228 to 234 °C; in that of `O=c1[nH]c2ccc(-c3cccc([N+](=O)[O-])c3)cc2s1`, 276 to 277 °C. Under `O=C(Nc1ccc(-n2nc(C(F)(F)F)cc2C(F)(F)F)cc1)c1c(F)ccc([N+](=O)[O-])c1F` stands 187 to 189 °C; under `COC(=O)C(NC(=O)OC(C)(C)C)c1ccc(CC(=O)O)cc1` (configuration not stated), 123 to 124 °C; under `COc1ccc(C2=C(C=O)c3ccc(OC)cc3CC2)cc1`, 142 °C. With `Cc1nc(-c2ccccn2)n2cn[nH]c(=O)c12`, the melting point lay in the range of 295 to 297 °C. Under `N#Cc1nc(N)c2ncn(C3OC(CO)C(O)C3O)c2n1` (configuration not stated) stands 195 to 197 °C. Under `Cc1ccc(CC(C)(C)C(=O)C=CN(C)C)cc1` stands 74 to 76 °C; under `CCn1cc(C(=O)O)c(=O)c2cc(F)c(C)c(F)c21`, 245 to 248 °C; under `CC(C)NS(=O)(=O)c1cccc(F)c1C#N`, 184 to 189 °C.

`Nc1ncc(S(=O)(=O)Nc2ccc(Br)c3c(Cl)c[nH]c23)cn1` came in with a melting point of 285 to 289 °C.

For `COc1ccc2oc3ccc(I)cc3c2c1C(=O)Nc1ccncc1`, the melting point is 255 to 257 °C. Under `CCN1c2nc(Cl)ccc2NC(=O)c2cc(CCc3cccc(NS(C)(=O)=O)c3)cnc21` stands 131 to 132 °C; under `CC(=O)NCCCNc1ccc(NCCN(C)C)c2c1C(=O)c1ccccc1C2=O`, 193 to 194 °C. As for `CN(C)Cc1c(-c2cc(C(C)(C)C)c(O)c(C(C)(C)C)c2)nc2n1CCS2`, the melting point was in the range of 188 to 191 °C. In the case of `CC(C)C[C@H](NC(=O)[C@H](Cc1c[nH]cn1)NC(=O)[C@H](Cc1cccc2ccccc12)NC(=O)OCc1ccccc1)[C@@H](O)CC(=O)OCc1ccccc1` it was 102 to 109 °C.

`CC(C)NCC1(O)CCN(c2c(F)cc3c(=O)c(C(=O)O)cn(C4CC4)c3c2F)C1` (configuration not stated) displayed a melting point of 213 to 214 °C. In the case of `CC=C(C)C(=O)c1c(O)c2c(c3c(CCC)cc(=O)oc13)OC(C)(C)C=C2` it was 110 to 112 °C; in that of `CCCCCCCCCCCCCCCCCCC(N)C(N)=O` (configuration not stated), 103 to 104 °C.

Molecule `CC(C)(C)OC(=O)Nc1cc(N2CCC(OCCOC3CCCCO3)CC2)c(-c2ccc(F)cc2)cc1[N+](=O)[O-]` (racemic) gave a melting point of 144 to 146 °C. In the case of `CCCC1=C(C(=O)OCC)C(c2ccccc2S(C)=O)c2c[nH]nc2N1` (configuration not stated) it was 216 °C.

Regarding `CCn1nc2c(N)nc3ccccc3c2c1CC1(O)CCN(S(C)(=O)=O)CC1`, the melting point was in the range of 268 to 270 °C. Under `CNc1nc(C(C)c2ccc(-c3ccc(F)cc3)c(F)c2)c(C(=O)O)s1` (configuration not stated) stands 195 to 196 °C; under `CC1(C)CCC(C)(C)c2cc(-c3cc(-c4ccc(C(=O)O)cc4)ccc3CC(O)CO)ccc21` (configuration not stated), 145 °C. In the case of `O=S(=O)(c1ccccc1)S(=O)(=O)c1ccccc1` it was 142 to 144 °C; in that of `Cc1nn(-c2ccc(Cl)cc2)c(C)c1NC(N)=S`, 244 to 246 °C; in that of `O=c1c2ccccc2nc(CCl)n1-c1ccccc1`, 152 to 153 °C. For `COc1cnc2c(C)ccc(-c3cccc(C(F)(F)F)c3)c2n1`, the melting point lay in the range of 119 to 121 °C. In the case of `COc1ccc(CNc2ncnc3c2ncn3C2OC(CNC(C)=O)C(O)C2O)cc1` (configuration not stated) it was 121 to 122 °C; in that of `CCCCCCCCCCCCCCCCCCNC(=O)OC[C@@H]1OCCC[C@H]1O` (relative stereo), 55 to 56 °C; in that of `CN1CCN(c2ccc(C(=O)CCC(=O)N3CCC(c4ccc(Cl)cc4)CC3)cc2)CC1`, 152 to 153 °C. In the case of `CCCCNC(=O)NS(=O)(=O)c1ccc(CCNC(=O)N2Cc3ccc(Cl)cc3C2=O)cc1` it was 208 to 210 °C; in that of `Cc1ccc(C2=NC(C)(C(C)C)C(=O)N2)cc1` (configuration not stated), 151 to 154 °C; in that of `CCC(C)c1ccc(N(Cc2ccccc2)C(=N)N)cc1` (configuration not stated), 65 to 67 °C.

Take `CC(C)NC1=NS(=O)(=O)c2cc(Br)cc(Br)c2N1`: the melting point is 306 to 311 °C.

Molecule `N#CC(S)(CCC(=O)O)C1=NCCc2ccccc21` (configuration not stated) showed a melting point of 149 to 150 °C. Under `O=c1[nH]c2ccccc2n1CCN1CCC(C(c2ccccc2)c2ccccc2)CC1` stands 195 to 196 °C.

In the case of `O=C(O)C(=O)c1ccc(OCC#Cc2ccccc2)cc1`, the melting point lay within 97 to 99 °C.

`COC(=O)c1cc(CC#N)cc(Cc2nc3c(F)c(F)cc(F)c3s2)c1`: the melting point lay within 130 to 132 °C. In turn, `COc1c(F)c(N)cc(F)c1F` registered a melting point of 45 to 47 °C. In the case of `CCCCCCCCCCCC(CC(=O)C(CCCCCC)C(=O)OC)OC1CCCCO1` (configuration not stated) it was 37 to 38 °C.
